Laboratory results from patent US20100010078A1, “METHODS OF TREATING ANDROGEN DEPENDENT PROSTATE CANCER BY ADMINISTERING AN ACTIVE PHARMACEUTICAL INGREDIENT BEING FISETIN, 3,3',4',7-TETRAHYDROXYFLAVONE OR A DERIVATIVE THEREOF, IN AN ORAL, TRANSDERMAL OR TOPICAL DOSAGE FORM” (priority 2008, published 2010).

Legend:
Type in all cases: cell-based, human
[1] = tested on: LNCaP cells; test: Apoptosis by Cell Death Detection ELISAPLUS; conditions: 48 h
Procedure: Apoptosis by ELISA. Following treatment of LNCaP cells with fisetin (10-60 μM; 48 h), the extent of apoptosis was determined by Cell Death Detection ELISA^PLUS assay, according to the manufacturer's protocol. The whole cell lysate (40 μg of total protein) was added to the lysis buffer and pipetted on a streptavidin-coated 96-well microtiter plate to which the immunoreagent mix was added and incubated for 2 h at room temperature, with continuous shaking at 500 rpm. The wells were then washed with washing buffer, the substrate solution added, the color developed (10-20 min) was read at 405 nm against the blank, reference wavelength of 490 nm. The enrichment factor (total amount of apoptosis) was calculated by dividing the absorbance of the sample (A405 nm) by the absorbance of the controls without treatment ([…]).

[2] = tested on: cyclin D1, cyclin D2 and cyclin E; test: Western blot, cyclins in LNCaP cells; conditions: fisetin 10-60 μM, 48 h
Procedure: (§1) Protein extraction and western blotting. Following the treatment of LNCaP cells with fisetin (10-60 μM; 48 h), the media was aspirated, the cells were washed with cold PBS (pH 7.4), and ice-cold lysis buffer (50 mM Tris-HCl, 150 mM NaCl, 1 mM EGTA, 1 mM EDTA, 20 mM NaF, 100 mM Na3VO4, 0.5% NP-40, 1% Triton X-100, 1 mM PMSF (pH 7.4)) with freshly added protease inhibitor cocktail (Protease Inhibitor Cocktail Set III, Calbiochem, La Jolla, Calif.) over ice for 30 min. The cells were scraped and the lysate was collected in a microfuge tube and passed through a needle to break up the cell aggregates. […]
(§2) For western blotting, 30-50 μg protein was resolved over 8-12% polyacrylamide gels and transferred to a nitrocellulose membrane. The blot was blocked in blocking buffer (5% nonfat dry milk/1% Tween 20; in 20 mM TBS, pH 7.6) for 1 hr at room temperature, incubated with appropriate monoclonal or polyclonal primary antibody in blocking buffer for 1.5 h to overnight at 4° C., followed by incubation with anti-mouse or anti-rabbit secondary antibody horseradish peroxidase conjugate obtained from Amersham Life Science Inc. and detected by chemiluminescence and autoradiography using XAR-5 film obtained from Eastman Kodak Co. (Rochester, N.Y., USA). […]

[3] = tested on: WAF1/p21 and KIP1/p27; test: Western blot, WAF1/p21 and KIP1/p27 in LNCaP cells; conditions: fisetin 10-60 μM, 48 h
Procedure: as §1, §2

[4] = tested on: Bak, Bcl-xL, Bad and Bid; test: Western blot, Bak, Bad, Bid and Bcl-xL in LNCaP cells; conditions: fisetin 10-60 μM, 48 h
Procedure: as §1, §2

O=c1c(O)c(-c2ccc(O)c(O)c2)oc2cc(O)ccc12 [fisetin, 3,3′,4′,7-tetrahydroxyflavone]
apoptosis as compared to control ([1]; fisetin 10 μM): 40%
apoptosis as compared to control ([1]; fisetin 20 μM): 64%
apoptosis as compared to control ([1]; fisetin 40 μM): 103%
apoptosis as compared to control ([1]; fisetin 60 μM): 106%
protein expression of cyclins D1, D2 and E [2]: dose-dependent decrease
protein expression of WAF1/p21 and KIP1/p27 [3]: induction
Bcl-xL expression [4]: significant decrease
protein expression of Bak, Bad and Bid [4]: significant increase
